Data reported in patent US20040087571A1, “Methods of using CCR1 antagonists as immunomodulatory agents” (Pfizer Inc, priority 2002, published 2004).

Compound	melting point [°C]
NC(=O)[C@H](Cc1ccc(OC(F)(F)F)cc1)C[C@H](O)[C@H](Cc1ccccc1)NC(=O)c1cnc2ccccc2n1 [Example 193, Quinoxaline-2-carboxylic acid [1(S)-benzyl-4(R)-carbamoyl-2(S)-hydroxy-5-(4-trifluoromethoxy-phenyl)-pentyl]-amide]	184 to 187
CNC(=O)[C@H](CC(C)C)C[C@H](O)[C@H](Cc1ccc(Cl)cc1)NC(=O)c1cnc2ccccc2c1 [Example 67, Quinoline-3-carboxylic acid [1(S)-(4-chloro-benzyl)-2(S)-hydroxy-6-methyl-4(R)-methylcarbamoyl-heptyl]-amide]	212.5 to 213.5
CNC(=O)[C@H](CC(C)C)C[C@H](O)[C@H](CC(C)C)NC(=O)c1cnc2ccccc2c1 [Example 10, Quinoline-3-carboxylic acid (2(S)-hydroxy-1(S)-isobutyl-6-methyl-4(R)-methylcarbamoyl-heptyl)-amide]	155 to 157
CC(C)(F)CC[C@H](C[C@H](O)[C@H](Cc1ccccc1)NC(=O)c1cnc2ccccc2n1)C(=O)NCc1cccs1 [Example 213, Quinoxaline-2-carboxylic acid {1(S)-benzyl-7-fluoro-2(S)-hydroxy-7-methyl-4(R)-[(thiophen-2-ylmethyl)-carbamoyl]-octyl}-amide]	174 to 175
CC(C)(F)CC[C@H](C[C@H](O)[C@H](Cc1cccc(F)c1)NC(=O)c1cnc2ccccc2n1)C(N)=O [Example 245, Quinoxaline-2-carboxylic acid [4(R)-carbamoyl-7-fluoro-1(S)-(3-fluoro-benzyl)-2(S)-hydroxy-7-methyl-octyl]-amide]	225 to 227
NC(=O)[C@@H](C[C@H](O)[C@H](Cc1ccccc1)NC(=O)c1cnc2ccccc2n1)C1(O)CCCC1 [Example 277, Quinoxaline-2-carboxylic acid [1(S)-benzyl-4(S)-carbamoyl-2(S)-hydroxy-4-(1-hydroxy-cyclopentyl)-butyl]-amide]	192 to 195
CC(C)(F)CC[C@H](C[C@H](O)[C@H](Cc1ccccc1)NC(=O)c1cnc2ccccc2n1)C(=O)NCc1ccccn1 [Example 211, Quinoxaline-2-carboxylic acid {1(S)-benzyl-7-fluoro-2(S)-hydroxy-7-methyl-4(R)-[(pyridin-2-ylmethyl)-carbamoyl]-octyl}-amide]	138 to 140
NC(=O)[C@@H](C[C@H](O)[C@H](Cc1ccccc1)NC(=O)c1cnc2ccccc2n1)C1CCCC1 [Example 171, Quinoxaline-2-carboxylic acid (1(S)-benzyl-4-carbamoyl-4(S)-cyclopentyl-2(S)-hydroxy-butyl)-amide]	126 to 128
NC(=O)[C@H](Cc1ccccc1)C[C@H](O)[C@H](Cc1ccccc1)NC(=O)c1cnc2c(F)c(F)ccc2c1 [Example 273, 7,8-Difluoro-quinoline-3-carboxylic acid (1(S)-benzyl-4(R)-carbamoyl-2(S)-hydroxy-5-phenyl-pentyl)-amide]	233 to 235
Cc1ccccc1C[C@H](C[C@H](O)[C@H](Cc1ccccc1)NC(=O)c1cnc2ccccc2n1)C(N)=O [Example 275, Quinoxaline-2-carboxylic acid (1(S)-benzyl-4(R)-carbamoyl-2(S)-hydroxy-5-o-tolyl-pentyl)-amide]	168 to 171
COc1cccc(CNC(=O)[C@H](CCC(C)(C)F)C[C@H](O)[C@H](Cc2ccccc2)NC(=O)c2cnc3ccccc3n2)c1OC [Example 242, Quinoxaline-2-carboxylic acid [1(S)-benzyl-4(R)-(2,3-dimethoxy-benzylcarbamoyl)-7-fluoro-2(S)-hydroxy-7-methyl-octyl]-amide]	99 to 101
O=C(N[C@@H](Cc1ccccc1)[C@@H](O)C[C@H](C(=O)NO)C1(O)C2CC3CC(C2)CC1C3)c1cnc2ccccc2n1 (stereo partly drawn) [Example 297, Quinoxaline-2-carboxylic acid [1(S)-benzyl-2(S)-hydroxy-4(S)-(2-hydroxy-adamantan-2-yl)-4-hydroxycarbamoyl-butyl]-amide]	133 to 134
CNC(=O)[C@H](CC1CCCCC1)C[C@H](O)[C@H](CC1CCCCC1)NC(=O)c1cnc2ccccc2c1 [Example 21, Quinoline-3-carboxylic acid (5-cyclohexyl-1(S)-cyclohexylmethyl-2(S)-hydroxy-4(R)-methylcarbamoyl-pentyl)-amide]	170.5 to 172.5
CCSCCNC(=O)[C@H](CCC(C)(C)F)C[C@H](O)[C@H](Cc1ccccc1)NC(=O)c1cnc2ccccc2n1 [Example 218, Quinoxaline-2-carboxylic acid [1(S)-benzyl-4(R)-(2-ethylsulfanyl-ethylcarbamoyl)-7-fluoro-2(S)-hydroxy-7-methyl-octyl]-amide]	78 to 79
CC(C)(F)CC[C@H](C[C@H](O)[C@H](Cc1ccccc1)NC(=O)c1cnc2ccccc2n1)C(=O)N1CCC[C@H]1CO [Example 239, Quinoxaline-2-carboxylic acid [1(S)-benzyl-7-fluoro-2(S)-hydroxy-4(R)-(2(S)-hydroxymethyl-pyrrolidine-1-carbonyl)-7-methyl-octyl]-amide]	217 to 219
CNC(=O)[C@H](CC(C)C)C[C@H](O)[C@H](Cc1ccc(OCc2ccccc2)cc1)NC(=O)c1cnc2ccccc2n1 [Example 39, Quinoxaline-2-carboxylic acid [1(S)-(4-benzyloxy-benzyl)-2(S)-hydroxy-6-methyl-4(R)-methylcarbamoyl-heptyl]-amide]	196 to 197
NC(=O)[C@H](Cc1ccccc1Cl)C[C@H](O)[C@H](Cc1ccccc1)NC(=O)c1cnc2ccccc2n1 [Example 274, Quinoxaline-2-carboxylic acid [1(S)-benzyl-4(R)-carbamoyl-5-(2-chloro-phenyl)-2(S)-hydroxy-pentyl]-amide]	182 to 185
NC(=O)[C@@H](C[C@H](O)[C@H](Cc1ccccc1)NC(=O)c1cnc2ccccc2n1)C1(O)CCCCC1 [Example 243, Quinoxaline-2-carboxylic acid [1(S)-benzyl-4(S)-carbamoyl-2(S)-hydroxy-4-(1-hydroxy-cyclohexyl)-butyl]-amide]	187 to 189
CC1CC(C)CC(O)([C@H](C[C@H](O)[C@H](Cc2ccccc2)NC(=O)c2cnc3ccccc3n2)C(N)=O)C1 (stereo partly drawn) [Example 288, Quinoxaline-2-carboxylic acid [1(S)-benzyl-4(S)-carbamoyl-2(S)-hydroxy-4-(1-hydroxy-3,5-dimethyl-cyclohexyl)-butyl]-amide]	234 to 236
COc1ccccc1CNC(=O)[C@H](CCC(C)(C)F)C[C@H](O)[C@H](Cc1ccccc1)NC(=O)c1cnc2ccccc2n1 [Example 227, Quinoxaline-2-carboxylic acid [1(S)-benzyl-7-fluoro-2(S)-hydroxy-4(R)-(2-methoxy-benzylcarbamoyl)-7-methyl-octyl]-amide]	135
CNC(=O)[C@H](CCC(C)C)C[C@H](O)[C@H](Cc1cccc(F)c1)NC(=O)c1cnc2ccccc2n1 [Example 134, Quinoxaline-2-carboxylic acid [1(S)-(3-fluoro-benzyl)-2(S)-hydroxy-7-methyl-4(R)-methylcarbamoyl-octyl]-amide]	158.5 to 159.5
NC(=O)[C@H](CC1CCC(F)(F)CC1)C[C@H](O)[C@H](Cc1ccccc1)NC(=O)c1cnc2ccccc2n1 [Example 133, Quinoxaline-2-carboxylic acid [1(S)-benzyl-4(R)-carbamoyl-5-(4,4-difluoro-cyclohexyl)-2(S)-hydroxy-pentyl]-amide]	174 to 176
NC(=O)[C@@H](Cc1ccc(Cl)c(Cl)c1)C[C@H](O)[C@H](Cc1ccccc1)NC(=O)c1cnc2ccccc2n1 [Example 279, Quinoxaline-2-carboxylic acid [1(S)-benzyl-4(S)-carbamoyl-5-(3,4-dichloro-phenyl)-2(S)-hydroxy-pentyl]-amide]	199 to 201
CC(C)(F)CC[C@H](C[C@H](O)[C@H](Cc1ccc(Cl)c(Cl)c1)NC(=O)c1cnc2ccccc2n1)C(N)=O [Example 155, Quinoxaline-2-carboxylic acid [4(R)-carbamoyl-1(S)-(3,4-dichloro-benzyl)-7-fluoro-2(S)-hydroxy-7-methyl-octyl]-amide]	206 to 207
CC(C)(F)CC[C@H](C[C@H](O)[C@H](Cc1ccccc1)NC(=O)c1cnc2ccccc2n1)C(=O)NCCc1ccccn1 [Example 205, Quinoxaline-2-carboxylic acid [1(S)-benzyl-7-fluoro-2(S)-hydroxy-7-methyl-4(R)-(2-pyridin-2-yl-ethylcarbamoyl)-octyl]-amide]	155 to 156
NC(=O)[C@@H](C[C@H](O)[C@H](Cc1ccccc1)NC(=O)c1cnc2ccccc2n1)C1CCCCC1 [Example 169, Quinoxaline-2-carboxylic acid (1(S)-benzyl-4-carbamoyl-4(S)-cyclohexyl-2(S)-hydroxy-butyl)-amide]	178 to 180
CC(C)(F)CC[C@H](C[C@H](O)[C@H](Cc1ccccc1)NC(=O)c1cnc2ccccc2n1)C(=O)NN [Example 312, Quinoxaline-2-carboxylic acid (1(S)-benzyl-7-fluoro-4(R)-hydrazinocarbonyl-2(S)-hydroxyl-7-methyl-octyl)-amide]	147 to 149
CC(C)(F)CC[C@H](C[C@H](O)[C@H](Cc1ccccc1)NC(=O)c1cnc2ccccc2n1)C(=O)NCCc1ccncc1 [Example 221, Quinoxaline-2-carboxylic acid [1(S)-benzyl-7-fluoro-2(S)-hydroxy-7-methyl-4(R)-(2-pyridin-4-yl-ethylcarbamoyl)-octyl]-amide]	78 to 80
NC(=O)[C@H](Cc1ccccc1F)C[C@H](O)[C@H](Cc1ccccc1)NC(=O)c1cnc2ccccc2n1 [Example 280, Quinoxaline-2-carboxylic acid [1(S)-benzyl-4(R)-carbamoyl-5-(2-fluoro-phenyl)-2(S)-hydroxy-pentyl]-amide]	171 to 173
O=C(N[C@@H](Cc1ccccc1)[C@@H](O)C[C@H](C(=O)NO)C1(O)C2CCCC1CCC2)c1cnc2ccccc2n1 (stereo partly drawn) [Example 298, Quinoxaline-2-carboxylic acid [1(S)-benzyl-2(S)-hydroxy-4(S)-(9-hydroxy-bicyclo[3.3.1]non-9-yl)-4-hydroxycarbamoyl-butyl]-amide]	130 to 132
